# Data reported in PMC10111413 (ACS Infectious Diseases, 2023).
# Where a SMILES comes first, the peptide text is derived from it. Bridges are numbered along the chain shown (N, C = ends). [ ]: non-standard residue; d: D form. The star is where a group is joined. ξ: configuration not given here. Hexanoyl(4ξ-Me) = CCC(C)CCC(=O)*; dOrn = NCCC[C@@H](N)C(=O)O; Orn = NCCC[C@H](N)C(=O)O; Dap = NC[C@H](N)C(=O)O
# Experiments:
# [1] = test system: G. mellonella larvae; conditions: in vivo
# Excerpt: Given the promising in vitro activity of relacidamide (5), along with its high serum stability, low hemolytic activity, and ease of synthesis, we further evaluated its efficacy in an established in vivo infection model using G. mellonella larvae. The G. mellonella infection model has gained popularity in recent years and provides a convenient method to assess the in vivo effectiveness and toxicity of novel antibiotics.[15],[16] […] The larvae were first injected with either vehicle (PBS) or A. baumannii BV94 suspension in the right second proleg. The moth larvae were then injected in the left second proleg with either PBS (untreated), colistin at 100 mg/kg or 200 mg/kg, or relacidamide (5) at 100 mg/kg or 200 mg/kg. The G. mellonella larvae were then incubated for 72 h, and their survival was assessed twice per day. Relacidamide (5) induced 50% survival after 72 h at 100 mg/kg and 70% survival at 200 mg/kg, whereas none of the larvae treated with colistin survived, and only 10% of the untreated larvae survived after 72 h.
# [2] = test system: A. baumannii NCTC 13304; format: cell-based; conditions: NCTC 13304, 18 h
# Procedure: (§1) VIII. Antimicrobial testing
# (§2) Table S2. Minimum inhibitory concentrations (MICs) determined against panel of previously characterized colistin-resistant A. baumannii clinical isolates5
# (§3) Strain Relacidine A (3a) Relacidine B (4a) Relacidamide (5) Colistin […]
# (§4) aMIC values given in µg/ml.
# (§5) All minimum inhibitory concentrations were determined according to Clinical and Standards Laboratory Institute (CLSI) guidelines. Blood agar plates were inoculated from glycerol stocks of the different A. baumannii strains used and then incubated for 16 h at 37 °C . Individually grown colonies were subsequently used to inoculate 5 mL aliquots of TSB that were then incubated at 37 °C. In parallel, the lipopeptide antibiotics DMSO stocks to be assessed were serially diluted with cation-adjusted MHB in polypropylene 96-well plates (50 µL in each well). Colistin sulfate stocks were dissolved in water before being diluted with cation-adjusted MHB. The A. baumannii inoculated TSB aliquots were incubated until an OD600 of around 0.5 was reached. The bacterial suspensions were then diluted with cation-adjusted MHB (2 x 10^5 CFU mL-1) and added to the microplates containing the test compounds (50 µL to each well). The well-plates were sealed with an adhesive membrane and after 18 h of incubation at 37 °C visually inspected for bacterial growth. MIC values reported are based on three technical replicates and defined as the lowest concentration of the compound that prevented visible
# [3] = test system: A. baumannii HUMC1; format: cell-based; conditions: HUMC1, 18 h
# Procedure: as §1, §2, §3, §4, §5
# [4] = test system: A. baumannii BV94; format: cell-based; conditions: BV94, 18 h
# Procedure: as §1, §2, §3, §4, §5
# [5] = test system: A. baumannii BV173; format: cell-based; conditions: BV173, 18 h
# Procedure: as §1, §2, §3, §4, §5
# [6] = test system: A. baumannii BV172; format: cell-based; conditions: BV172, 18 h
# Procedure: as §1, §2, §3, §4, §5
# [7] = test system: A. baumannii BV95; format: cell-based; conditions: BV95, 18 h
# Procedure: as §1, §2, §3, §4, §5
# [8] = test system: A. baumannii LAC-4; format: cell-based; conditions: LAC-4, 18 h
# Procedure: as §1, §2, §3, §4, §5
# [9] = test system: A. baumannii ATCC 17978; format: cell-based; conditions: ATCC 17978, 18 h
# Procedure: as §1, §2, §3, §4, §5
# [10] = test system: A. baumannii NCTC 13420; format: cell-based; conditions: NCTC 13420, 18 h
# Procedure: as §1, §2, §3, §4, §5
# [11] = test system: E. coli ATCC 25922 mcr-1; format: cell-based; conditions: CLSI microbroth dilution, Mueller Hinton broth, 18 h at 37 °C, visual read-out, three technical replicates; mcr-1 colistin resistance plasmid
# Procedure: (§6) The antibacterial activities of relacidine A (3a) and B (4a), along with diastereomers 3b and 4b–d and relacidamide (5), were assessed using a standard microbroth dilution assay to establish minimum inhibitory concentration (MIC) values against a panel of Gram-negative bacteria (Table 1). The MIC values measured for synthetic relacidine A (3a) and B (4a) agree well with those previously published.[9] […] Relacidine A (3a) and B (4a), as well as relacidamide (5), were further tested against a panel of colistin-resistant A. baumannii clinical isolates, which confirmed their ability to prevent the growth of colistin-resistant isolates (Supplemental Table S2). […] Also of interest was the finding that while relacidine B (4a) induced <1% hemolysis, a substitution of either the L-Ala or L-Ser to D-Ala or D-Ser increased hemolytic activity to 8–12%. […] The greater hydrolytic stability of relacidine B would appear to be attributable to the increased steric bulk of the Ala side chain next to the ester linkage (compared with the methylene of Gly in relacidine A), which may hinder the nucleophilic attack of water at the ester carbonyl.
# (§7) Colistin sulfate was purchased from Activate Scientific. Kanamycin monosulfate was purchased from MP Biomedicals. E. coli ATCC 25922, S. aureus USA300 (ATCC BAA1717), and K. pneumoniae ATCC 13883 belong to the American Type Culture Collection (ATCC). P. aeruginosa PAO1 was kindly provided by L.H.C. Quarles Van Ufford of Utrecht University, Utrecht, The Netherlands. E. coli ATCC 25922 MCR-1 was transfected in-house using the pGDP2-MCR1 plasmid kindly provided by Yong-Xin Li of The University of Hong Kong, Hong Kong, China. Sheep blood agar plates (ref. PB5039A) were purchased from Thermo Scientific. Tryptic soy broth (ref. 02-200-500) was purchased from Scharlab. Mueller-Hinton broth (ref. X927.1) was purchased from Carl Roth. Polypropylene 96-wells plates (ref. 3879) were purchased from Corning.
# (§8) MICs were determined according to Clinical and Standards Laboratory Institute (CLSI) guidelines. Blood agar plates were inoculated with glycerol stocks of E. coli ATCC 25922, K. pneumoniae ATCC 13883, P. aeruginosa PAO1, and S. aureus USA300. The inoculated agar plates were then incubated for 16 h at 37 °C. Individually grown colonies were subsequently used to inoculate 5 mL aliquots of tryptic soy broth (TSB) that were then incubated at 37 °C with shaking at 220 rpm. E. coli 25922 MCR-1 glycerol stock was used to inoculate 5 mL of TSB supplemented with kanamycin that was then incubated for 16 h at 37 °C with shaking at 220 rpm. The next day, the culture was diluted 100-fold in TSB supplemented with kanamycin and incubated at 37 °C with shaking at 220 rpm. In parallel, the lipopeptide antibiotic DMSO stocks to be assessed were serially diluted with Mueller Hinton broth (MHB) in polypropylene 96-well plates (50 μL in each well). Colistin sulfate stocks were dissolved in water before being diluted with MHB. Aliquots of the inoculated TSB were incubated until an OD600 of around 0.5 was reached. The bacterial suspensions were then diluted with MHB (2 × 10^5 cfu mL^–1) and added to the microplates containing the test compounds (50 μL to each well). The well plates were sealed with an adhesive membrane, and after 18 h of incubation at 37 °C with shaking at 600 rpm, the wells were visually inspected for bacterial growth. MIC values reported are based on three technical replicates and defined as the lowest concentration of the compound that prevented visible growth of bacteria.
# [12] = test system: E. coli ATCC 25922; format: cell-based; conditions: ATCC 25922, 18 h
# Procedure: as §6, §7, §8
# [13] = test system: S. aureus USA300; format: cell-based; conditions: USA300, 18 h
# Procedure: as §6, §7, §8
# [14] = test system: K. pneumoniae ATCC 13883; format: cell-based; conditions: ATCC 13883, 18 h
# Procedure: as §6, §7, §8
# [15] = test system: P. aeruginosa PAO1; format: cell-based; conditions: PAO1, 18 h
# Procedure: as §6, §7, §8
smiles,measurement,setting,value
"CCC(C)CCC(=O)N[C@H](CO)C(=O)N[C@H](Cc1ccc(O)cc1)C(=O)N[C@H](Cc1c[nH]c2ccccc12)C(=O)N[C@H](CCCN)C(=O)N[C@@H](CCCN)C(=O)NCC(=O)N[C@H](CCCN)C(=O)N[C@@H](Cc1c[nH]c2ccccc12)C(=O)N[C@H]1CNC(=O)CNC(=O)[C@H](CO)NC(=O)CNC(=O)[C@H]([C@@H](C)CC)NC1=O (stereo partly drawn) [compound 5, Relacidamide] ({Hexanoyl(4ξ-Me)}-[dS][dY][dW][dOrn][Orn]G[dOrn]W[Dap]IGSG; lactam 9-C)",tolerability in G. mellonella larvae,[1],well tolerated up to the highest tested dose
same,MIC A. baumannii NCTC 13304,[2],4 µg/mL
same,MIC A. baumannii HUMC1,[3],8 µg/mL
same,MIC A. baumannii BV94,[4],8 µg/mL
same,MIC A. baumannii BV173,[5],16 µg/mL
same,MIC A. baumannii BV172,[6],16 µg/mL
same,MIC A. baumannii BV95,[7],8 µg/mL
same,MIC A. baumannii LAC-4,[8],8 µg/mL
same,MIC A. baumannii ATCC 17978,[9],4 µg/mL
same,MIC A. baumannii NCTC 13420,[10],16 µg/mL
same,MIC E. coli ATCC 25922 mcr-1,[11],2 to 4 µg/mL
same,MIC E. coli ATCC 25922,[12],2 to 4 µg/mL
same,MIC S. aureus USA300,[13],>32 µg/mL
same,MIC K. pneumoniae ATCC 13883,[14],4 µg/mL
same,MIC P. aeruginosa PAO1,[15],8 µg/mL
